A word on the IC50: it is the midpoint of a concentration-inhibition curve.

Common to all, as to assay type: cell-based
For experiment [1], the system named is human G12D mutant KRAS-positive pancreatic cancer line AsPC-1. Nature of the experiment: Non-anchorage-dependent cell growth inhibitory effect, spheroid 3D culture (Test Example 3). To be noted: ASPC1, 144 h, AsPC-1 spheroid 3D culture, 6 days; for IC50: CellTiter Glo 2.0, read-out: IC50 (non-anchorage-dependent cell growth inhibition). The gist of the method:
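AsPC-1 cells grown as spheroids in RPMI 1640 with 10% FBS at 37° C, 5% CO2, then exposed to compounds (10 μM to 0.3 nM final) for 6 days. Viability read by CellTiter Glo 2.0 luminescence. IC50 from Sigmoid-Emax regression with DMSO as 100% and cell-free medium as 0%.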
A general note: In ATP-based viability assays light output follows the ATP content of the culture.

For experiment [2], the system named is phosphorylation of ERK (Thr202/Tyr204). Kind of experiment: ERK phosphorylation inhibitory effect by Cell ELISA in AsPC-1 cells (Test Example 2). To be noted: Homo sapiens, ASPC1, overnight treatment, Cell ELISA, read-out: IC50 (ERK phosphorylation inhibition). An outline of the steps: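 AsPC-1 cells (2.0×10^4/well, RPMI 1640 + 10% FBS) treated overnight with compounds (10 points, 10 μM to 0.3 nM final), then glyoxal-fixed and immunostained for phospho-ERK with IRDye 800CW secondary; 800-nm fluorescence read. IC50 by Sigmoid-Emax regression, normalized to DMSO (100%) and 1 μM trametinib (0%).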
On the technique in general: In an ELISA, binding on a coated surface is turned into a signal by an enzyme label.

A further experiment addresses T1, KRAS G12D (Homo sapiens, UniProt P01116, G12D).
T1 construct: host or cells: AsPC-1 (human pancreatic cancer line)
Nature of the experiment: KRAS degradation activity by Cell ELISA in AsPC-1 cells (Test Example 1). To be noted: Cell ELISA; for Dmax: ASPC1, overnight treatment, read-out: Dmax (degradation rate at the concentration showing highest degradation); for DC50: overnight treatment, read-out: DC50 (50% degradation concentration of KRAS). An outline of the steps:
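AsPC-1 cells (2.0×10^4/well) treated overnight with compounds at 10 μM–0.3 nM (10 points), then fixed, permeabilised and stained for KRAS G12D (800 nm) and β-actin (700 nm) by in-cell ELISA. KRAS signal normalised to β-actin, DMSO set as 0% and actin-only staining as 100%; DC50 from Sigmoid-Emax regression up to Dmax.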

T1 sequence (P01116 1-188 isoform P01116-2 G12D): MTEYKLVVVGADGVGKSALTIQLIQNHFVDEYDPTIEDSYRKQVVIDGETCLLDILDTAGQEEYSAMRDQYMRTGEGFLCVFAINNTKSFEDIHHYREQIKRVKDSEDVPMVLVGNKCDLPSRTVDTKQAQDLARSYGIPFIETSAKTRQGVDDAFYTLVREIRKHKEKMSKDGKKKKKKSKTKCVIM

For the compound `Cc1c(F)cc2[nH]ncc2c1-c1c(C2CC2)cc2c(N3C[C@@H]4C[C@H]3CN4)nc(OC3CCOCC3)nc2c1OCc1ccc(C(=O)N2C3CCC2CN(Cc2ccc4c(c2)C(=O)N(C2CCC(=O)NC2=O)C4=O)C3)cc1` (stereo partly drawn) [Example 5, 5-[(8-{4-[({(7M)-6-cyclopropyl-4-[(1S,4S)-2,5-diazabicyclo[2.2.1]heptan-2-yl]-7-(6-fluoro-5-methyl-1H-indazol-4-yl)-2-[(oxan-4-yl)oxy]quinazolin-8-yl}oxy)methyl]benzoyl}-3,8-diazabicyclo[3.2.1]octan-3-yl)methyl]-2-(2,6-dioxopiperidin-3-yl)-1H-isoindole-1,3(2H)-dione], the IC50 in experiment [1] was 490 nM. In addition, the IC50 in experiment [2] came out at 329 nM. On KRAS G12D, the Dmax turned out to be 84% and the DC50 was found to be 308 nM.

Turning to `Cc1c(F)cc2[nH]ncc2c1-c1c(C2CC2)cc2c(N3C[C@@H]4C[C@H]3CN4)nc(OC3CCOCC3)nc2c1OCc1ccc(C(=O)N2CCN(Cc3cccc4c3oc(=O)n4C3CCC(=O)NC3=O)CC2)cc1` (stereo partly drawn) [Example 6], the inhibition at 10 µM in experiment [1] (at 10 μM, read-out: cell growth inhibition at the highest concentration evaluated) was 50%. In addition, the IC50 in experiment [2] was found to be 3940 nM. For the same compound, at KRAS G12D, the Dmax was determined as 49% and the DC50 came to 2730 nM.

With `Cc1c(F)cc2[nH]ncc2c1-c1c(C2CC2)cc2c(N3C[C@@H]4C[C@H]3CN4)nc(OC3CCOCC3)nc2c1OCc1ccc(C(=O)N2CCN(Cc3ccc4c(c3)n(C)c(=O)n4C3CCC(=O)NC3=O)CC2)cc1` (stereo partly drawn) [Example 7], the IC50 stood at 73 nM in experiment [1] and 60 nM in experiment [2]. Further, the Dmax at KRAS G12D worked out at 80%. In addition, the DC50 at KRAS G12D was 35 nM.

For the compound `Cc1c(F)cc2[nH]ncc2c1-c1c(C2CC2)cc2c(N3C[C@@H]4C[C@H]3CN4)nc(OC3CCOCC3)nc2c1OCc1ccc(C(=O)N2CCN(Cc3ccc4c(c3)n(C)c(=O)n4C3CCC(=O)NC3=O)C[C@H]2C)cc1` (stereo partly drawn) [Example 9], the IC50 in experiment [1] turned out to be 90 nM. Further, the IC50 in experiment [2] was 69 nM. On KRAS G12D, the Dmax amounted to 65% and the DC50 amounted to 55 nM.

As for `Cc1c(F)cc2[nH]ncc2c1-c1c(C2CC2)cc2c(N3C[C@@H]4C[C@H]3CN4)nc(OC3CCOCC3)nc2c1OCc1ccc(C(=O)N2CCN(Cc3ccc4c(n3)n(C)c(=O)n4C3CCC(=O)NC3=O)CC2)cc1` (stereo partly drawn) [Example 11], in experiment [1], the IC50 is 142 nM. The IC50 in experiment [2] was 59 nM. Moreover, at KRAS G12D, the Dmax came out at 84% and the DC50 turned out to be 58 nM.

With `CO[C@@H](C)COc1nc(N(C)[C@H]2CCNC2)c2cc(C3CC3)c(-c3c(C)c(F)cc4[nH]ncc34)c(OCc3ccc(C(=O)N4CCN(Cc5ccc6c(c5)n(C)c(=O)n6C5CCC(=O)NC5=O)C[C@@H]4C)cc3)c2n1` (stereo partly drawn) [Example 18], the IC50 in experiment [1] was determined as 217 nM. Moreover, the IC50 in experiment [2] turned out to be 250 nM. Besides, at KRAS G12D, the Dmax came to 77% and the DC50 was determined as 85 nM.

For the compound `Cc1c(F)cc2[nH]ncc2c1-c1c(C2CC2)cc2c(N3C[C@@H]4C[C@H]3CN4)nc(OC3CCOCC3)nc2c1OCc1ccc(C(=O)N2CCC(CNc3cccc4c3C(=O)N(C3CCC(=O)NC3=O)C4=O)CC2)cc1` (stereo partly drawn) [Example 30], the IC50 in experiment [1] is 1440 nM; in experiment [2], 1280 nM. At KRAS G12D, the Dmax was 71%. In addition, on KRAS G12D, the DC50 was found to be 1480 nM.

With `Cc1c(F)cc2[nH]ncc2c1-c1c(C2CC2)cc2c(O[C@H]3CCNC3)cc(OC[C@@H]3CCCO3)nc2c1OCc1ccc(C(=O)N2CCN(Cc3ccc4c(c3)n(C)c(=O)n4C3CCC(=O)NC3=O)C[C@@H]2C)cc1` (stereo partly drawn) [Example 31], the IC50 in experiment [1] came out at 147 nM; in experiment [2] it was 158 nM. Also, at KRAS G12D, the Dmax stood at 71%. Also, at KRAS G12D, the DC50 was determined as 115 nM.

In the case of `Cc1c(F)cc2[nH]ncc2c1-c1c(C2CC2)cc2c(N3C[C@@H]4C[C@H]3CN4)nc(OC3CCOCC3)nc2c1OCc1ccc(C(=O)N2CCN(Cc3ccc4c(c3)CN(C3CCC(=O)NC3=O)C4=O)C[C@@H]2C)cc1` (stereo partly drawn) [Example 33, 3-(5-{[(3S)-4-{4-[({(7M)-6-cyclopropyl-4-[(1S,4S)-2,5-diazabicyclo[2.2.1]heptan-2-yl]-7-(6-fluoro-5-methyl-1H-indazol-4-yl)-2-[(oxan-4-yl)oxy]quinazolin-8-yl}oxy)methyl]benzoyl}-3-methylpiperazin-1-yl]methyl}-1-oxo-1,3-dihydro-2H-isoindol-2-yl)piperidine-2,6-dione], the 50% inhibitory concentration (IC50) in experiment [1] turned out to be 142 nM. In addition, in experiment [2], the IC50 came out at 102 nM. In addition, on KRAS G12D, the Dmax turned out to be 88% and the DC50 amounted to 79 nM.

As to `CO[C@@H](C)COc1nc(N(C)[C@@H]2CCNC2)c2cc(C3CC3)c(-c3c(C)c(F)cc4[nH]ncc34)c(OCc3ccc(C(=O)N4CCN(Cc5ccc6c(c5)n(C)c(=O)n6C5CCC(=O)NC5=O)C[C@@H]4C)cc3)c2n1` (stereo partly drawn) [Example 35], in experiment [1], the IC50 turned out to be 1110 nM. Moreover, in experiment [2], the IC50 was 1510 nM. Also, at KRAS G12D, the Dmax is 48% and the DC50 amounted to 3670 nM.

Turning to `Cc1c(F)cc2[nH]ncc2c1-c1c(C2CC2)cc2c(N3C[C@@H]4C[C@H]3CN4)nc(O[C@@H]3CCOC3)nc2c1OCc1ccc(C(=O)N2CCN(Cc3ccc4c(c3)n(C)c(=O)n4C3CCC(=O)NC3=O)C[C@@H]2C)cc1` (stereo partly drawn) [Example 36], in experiment [1], the IC50 amounted to 159 nM. Further, the half-inhibitory concentration (IC50) in experiment [2] is 78 nM. On KRAS G12D, the Dmax amounted to 80% and the DC50 came out at 79 nM.

On to `Cc1c(F)cc2[nH]ncc2c1-c1c(C2CC2)cc2c(N3C[C@@H]4C[C@H]3CN4)nc(OC[C@H]3CCCO3)nc2c1OCc1ccc(C(=O)N2CCN(Cc3ccc4c(c3)n(C)c(=O)n4C3CCC(=O)NC3=O)C[C@@H]2C)cc1` (stereo partly drawn) [Example 37], for which the IC50 in experiment [1] amounted to 64 nM. For the same compound, in experiment [2], the IC50 is 41 nM. In addition, on KRAS G12D, the Dmax turned out to be 87% and the DC50 amounted to 30 nM.

Consider `CO[C@H](C)COc1nc(N2C[C@@H]3C[C@H]2CN3)c2cc(C3CC3)c(-c3c(C)c(F)cc4[nH]ncc34)c(OCc3ccc(C(=O)N4CCN(Cc5ccc6c(c5)n(C)c(=O)n6C5CCC(=O)NC5=O)C[C@@H]4C)cc3)c2n1` (stereo partly drawn) [Example 38], for which the IC50 in experiment [1] turned out to be 51 nM. The IC50 in experiment [2] was 31 nM. Further, on KRAS G12D, the Dmax came out at 86% and the DC50 amounted to 22 nM.

Consider `CO[C@@H](C)COc1nc(O[C@@H]2CCNC2)c2cc(C3CC3)c(-c3c(C)c(F)cc4[nH]ncc34)c(OCc3ccc(C(=O)N4CCN(Cc5ccc6c(c5)n(C)c(=O)n6C5CCC(=O)NC5=O)C[C@@H]4C)cc3)c2n1` (stereo partly drawn) [Example 39], for which the IC50 in experiment [1] amounted to 52 nM. In addition, in experiment [2], the IC50 is 30 nM. Besides, at KRAS G12D, the Dmax came to 83% and the DC50 stood at 22 nM.

`Cc1c(F)cc2[nH]ncc2c1-c1c(C2CC2)cc2c(N3C[C@@H]4C[C@H]3CN4)nc(OC[C@@H]3CCCO3)nc2c1OCc1ccc(C(=O)N2CCN(Cc3ccc4c(c3)n(C)c(=O)n4C3CCC(=O)NC3=O)C[C@@H]2C)cc1` (stereo partly drawn) [Example 40]: the IC50 in experiment [1] turned out to be 46 nM; in experiment [2] it was 30 nM. In addition, on KRAS G12D, the Dmax was found to be 88%. In addition, on KRAS G12D, the DC50 came to 23 nM.

Take `Cc1c(F)cc2[nH]ncc2c1-c1c(C2CC2)cc2c(N3C[C@@H]4C[C@H]3CN4)nc(O[C@H]3CCOC3)nc2c1OCc1ccc(C(=O)N2CCN(Cc3ccc4c(c3)n(C)c(=O)n4C3CCC(=O)NC3=O)C[C@@H]2C)cc1` (stereo partly drawn) [Example 41]: the IC50 in experiment [1] worked out at 155 nM. The IC50 in experiment [2] was found to be 90 nM. On KRAS G12D, the Dmax is 78% and the DC50 came out at 52 nM.

On to `CO[C@@H](C)COc1nc(O[C@H]2CCNC2)c2cc(C3CC3)c(-c3c(C)c(F)cc4[nH]ncc34)c(OCc3ccc(C(=O)N4CCN(Cc5ccc6c(c5)n(C)c(=O)n6C5CCC(=O)NC5=O)C[C@@H]4C)cc3)c2n1` (stereo partly drawn) [Example 43], for which the IC50 in experiment [1] was 33 nM; in experiment [2], 13 nM. Further, the Dmax on KRAS G12D is 90%. At KRAS G12D, the DC50 amounted to 9 nM.

For the compound `CO[C@H](C)COc1cc(O[C@H]2CCNC2)c2cc(C3CC3)c(-c3c(C)c(F)cc4[nH]ncc34)c(OCc3ccc(C(=O)N4CCN(Cc5ccc6c(c5)n(C)c(=O)n6C5CCC(=O)NC5=O)C[C@@H]4C)cc3)c2n1` (stereo partly drawn) [Example 44], the IC50 in experiment [1] amounted to 123 nM; in experiment [2], 69 nM. Besides, the Dmax on KRAS G12D was determined as 74%. The DC50 on KRAS G12D amounted to 41 nM.

Source of the values: US20250145631A1, “HETEROCYCLIC COMPOUND ACTING ON G12D MUTANT KRAS PROTEIN” (Astellas Pharma Inc., priority 2022, published 2025).
